We go through 4 molecules from patent US12384969B2, “Enhancement of soil characteristics with lactobionate compounds” (Leprino Foods Company, priority 2017, dated 2025).

The subject of one series is soil microbial biomass. Briefly: Soil microbial biomass carbon (MBC), chloroform-fumigation extraction, two-month laboratory soil incubation.
Series [1] can be described thus: Water absorbed after exposure to 100% relative humidity for 4 hours (FIG. 6). The format is physicochemical. The settings on record: nine substances plus control. The source says:
When one of the hydroxyl groups occurs in the alpha position, the PHA is a polyhydroxy alpha-hydroxy acid (AHA); when an additional sugar is attached to the PHA structure the molecule is a bionic acid. […] The multiple hydroxyl groups in PHAs attract and hydrogen bond surrounding water molecules, which increase the humectant properties of the compounds.

[2] abbreviates: Akron, CO (Ak) soil, HC, 1 month.
The mark [3] stands for this setting: Akron, CO (Ak) soil, LC, 1 month.
Setting [4] is: Fresno, CA (Fr) soil, HC, 1 month.
The mark [5] stands for this setting: Fresno, CA (Fr) soil, HC, 2 wks.
The mark [6] stands for this setting: Fresno, CA (Fr) soil, LC, 1 month.
Setting [7] is: Fresno, CA (Fr) soil, LC, 2 wks.

`O=C([O-])[C@H](O)[C@@H](O)[C@H](O[C@@H]1O[C@H](CO)[C@H](O)[C@H](O)[C@H]1O)[C@H](O)CO.O=C([O-])[C@H](O)[C@@H](O)[C@H](O[C@@H]1O[C@H](CO)[C@H](O)[C@H](O)[C@H]1O)[C@H](O)CO.[Ca+2]` [Ca-LB, calcium lactobionate]: the MBC with soil microbial biomass (setting [2]) is listed as 6395.35^CDE mg C kg -soil; with soil microbial biomass (Akron, CO (Ak) soil, HC, 2 wks), 9197.28^ABC mg C kg -soil; against soil microbial biomass (setting [3]) it was 9816.22^C mg C kg -soil; in the series on soil microbial biomass (Akron, CO (Ak) soil, LC, 2 wks) it was 13087.10^A mg C kg -soil; against soil microbial biomass (setting [4]), 11289.89^BC mg C kg -soil; with soil microbial biomass (setting [5]), 10362.94^A mg C kg -soil. Besides, the MBC against soil microbial biomass (setting [6]) is 7560.73^CD mg C kg -soil; with soil microbial biomass (setting [7]), 10133.11^A mg C kg -soil.

Regarding `O=C([O-])[C@H](O)[C@@H](O)[C@H](O[C@@H]1O[C@H](CO)[C@H](O)[C@H](O)[C@H]1O)[C@H](O)CO.[K+]` [K-LB, potassium lactobionate], the MBC with soil microbial biomass (setting [2]) is recorded as 7790.40^CD mg C kg -soil; against soil microbial biomass (Akron, CO (Ak) soil, HC, 2 wks), 8349.51^AC mg C kg -soil; against soil microbial biomass (setting [3]), 10597.30^BC mg C kg -soil; against soil microbial biomass (Akron, CO (Ak) soil, LC, 2 wks), 11189.75^A mg C kg -soil; in the series on soil microbial biomass (setting [4]), 16689.85^AB mg C kg -soil; with soil microbial biomass (setting [5]), 1369.60^A mg C kg -soil. The MBC against soil microbial biomass (setting [6]) is given as 7277.63^CD mg C kg -soil; against soil microbial biomass (setting [7]), 12167.76^A mg C kg -soil.

`O=C(O)[C@H](O)[C@@H](O)[C@H](O[C@@H]1O[C@H](CO)[C@H](O)[C@H](O)[C@H]1O)[C@H](O)CO` [LBA, lactobionic acid]: in series [1], the “Weight of water absorbed per mole of substance” value was “highest”.

`N.O=C(O)[C@H](O)[C@@H](O)[C@H](O[C@@H]1O[C@H](CO)[C@H](O)[C@H](O)[C@H]1O)[C@H](O)CO` [NH4-LB, ammonium lactobionate]: the MBC in the series with soil microbial biomass (setting [2]) is given as 869.62^EF mg C kg -soil; against soil microbial biomass (Akron, CO (Ak) soil, HC, 2 wks), 11037.60^A mg C kg -soil; in the series with soil microbial biomass (setting [3]), 3225.38^DEF mg C kg -soil; in the series with soil microbial biomass (Akron, CO (Ak) soil, LC, 2 wks), 9911.52^A mg C kg -soil; against soil microbial biomass (setting [4]) it was 18504.80^A mg C kg -soil; with soil microbial biomass (setting [5]), 13627.26^A mg C kg -soil. Also, the MBC in the series with soil microbial biomass (setting [6]) is 739.12^EF mg C kg -soil; in the series on soil microbial biomass (setting [7]), 8610.50^AC mg C kg -soil. In addition, the “Total MBC compared between LB amendments” value with soil microbial biomass (at 1 month) is given as “lower”.
